Entries after “also recorded” stand apart in the source; their conditions may differ.
Test system: actin polymerization
Test: Inhibition study: actin polymerization inhibitor/activator, VEGFB ELISA
Type: cell-based, human
Conditions: 24 hr
Description: After cell encapsulation with two different molecular weight polymers such as 5 kDa and 30 kDa, the cells were rinsed and resuspended in the media containing actin polymerization inhibitor (Cytochalastin D (CytoD): 2 μM) and activator (lysophosphatidic (LPA): […] After the incubation for 24 hr with different pharmacological chemicals, the supernatants from different treatment groups were collected to measure VEGFB production from the cells using ELISAs as above.

Molecule	VEGFB concentration in NPCs coated with 30 kDa PEG (2 μM CytoD)	VEGFB production in NPCs coated with 5 kDa PEG (2 μM CytoD)	VEGFB production in 30 kDa encapsulated NPCs (LPA)
C=C1[C@@H](C)[C@H]2[C@H](Cc3ccccc3)NC(=O)[C@]23[C@H](OC(C)=O)/C=C/[C@@](C)(O)C(=O)[C@@H](C)C/C=C/[C@H]3[C@@H]1O [CytoD, Cytochalastin D]	not significantly different	significantly different from other groups; also recorded: increased VEGFB production	–
lysophosphatidic acid [LPA]	–	–	significantly different from other groups; also recorded: decreased production of VEGFB
